Some test systems named below: MOLT-4 leukemia; OVCAR-3 ovarian; COLO 205 colon; NCI-H226 lung; SN12C renal; NCI-H522 lung; BT-549 breast; SF-539 CNS; SF-295 CNS; SF-268 CNS; OVCAR-4 ovarian; SW-620 colon.
Test in all cases: inhibition of tumour cell growth, NCI panel, 48 h

The text below walks through data of PubChem BioAssay (NCI).

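Compound exposure: 48 hours, 5 concentrations, 96-well plates. The concentration for full growth arrest is given as TGI.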 A value given as a limit tells only on which side of the number the result lay.

On to `COc1nn(Cc2ccccc2F)c2ccc([N+](=O)[O-])cc12`, for which the TGI in the experiment on MOLT-4 leukemia, in the experiment on OVCAR-3 ovarian, with COLO 205 colon, with NCI-H226 lung, with SN12C renal and with NCI-H522 lung was above 100 µM each time. Moreover, the TGI in the experiment on BT-549 breast, in the experiment on SF-539 CNS, in the experiment with SF-295 CNS, in the experiment on SF-268 CNS, in the experiment on OVCAR-4 ovarian and with SW-620 colon was above 100 µM throughout.
In the case of `N=c1c2c3n(c4c(=O)n(-c5ccccc5)c(=S)n(c(=O)n1-c1ccccc1)c24)CCCCC3`, the TGI in the experiment with MOLT-4 leukemia is above 71.6 µM; with OVCAR-3 ovarian, above 100 µM; with COLO 205 colon, above 100 µM; in the experiment on NCI-H226 lung it was above 100 µM; with SN12C renal, above 100 µM; in the experiment on NCI-H522 lung, above 100 µM. Moreover, the TGI with BT-549 breast, with SF-539 CNS, with SF-295 CNS, in the experiment with SF-268 CNS, in the experiment with OVCAR-4 ovarian and in the experiment on SW-620 colon was above 100 µM throughout.
Take `COC(=O)C1=NN2c3ccccc3C(=O)OCCC2C1` (configuration not stated): the TGI with MOLT-4 leukemia, in the experiment with OVCAR-3 ovarian, with COLO 205 colon, in the experiment with NCI-H226 lung, in the experiment on SN12C renal and in the experiment with NCI-H522 lung was above 100 µM throughout. Besides, the TGI with BT-549 breast, in the experiment with SF-539 CNS, in the experiment with SF-295 CNS, in the experiment with SF-268 CNS, with OVCAR-4 ovarian and with SW-620 colon was above 100 µM in each case.
Take `COc1ccc(/C=C2\CN(C)CC3=C2OC(N)=C(C#N)C3c2ccc(OC)cc2)cc1` (configuration not stated): the TGI in the experiment on MOLT-4 leukemia is above 49 µM; with OVCAR-3 ovarian, above 93.1 µM; with COLO 205 colon it was above 100 µM; with NCI-H226 lung, above 100 µM; in the experiment with SN12C renal, above 100 µM; in the experiment on NCI-H522 lung it was above 83.1 µM. Further, the TGI with BT-549 breast, in the experiment on SF-539 CNS, in the experiment on SF-295 CNS, in the experiment on SF-268 CNS, in the experiment on OVCAR-4 ovarian and in the experiment on SW-620 colon was above 100 µM each time.
`C[n+]1c2ccccc2c(CNC(CCC(N)=O)C(=O)O)c2ccccc21` (configuration not stated): the TGI with MOLT-4 leukemia was determined as 10 µM; with OVCAR-3 ovarian, 6.78 µM; with COLO 205 colon, 2.14 µM; in the experiment on NCI-H226 lung, 18.3 µM; in the experiment with SN12C renal, 7.36 µM; in the experiment on NCI-H522 lung, 3.18 µM. The TGI in the experiment with BT-549 breast amounted to 10.1 µM; in the experiment with SF-539 CNS, 5.61 µM; in the experiment with SF-295 CNS it was 16 µM; in the experiment on SF-268 CNS, 6.71 µM; in the experiment on OVCAR-4 ovarian, 9.24 µM; in the experiment on SW-620 colon, 1.95 µM.
In the case of `CCC(=O)OCc1ccc2oc(=O)c(C(=O)Oc3cncc(Cl)c3)cc2c1`, the TGI in the experiment with MOLT-4 leukemia, in the experiment on OVCAR-3 ovarian, in the experiment on COLO 205 colon, in the experiment on NCI-H226 lung, in the experiment with SN12C renal and in the experiment on NCI-H522 lung was above 100 µM throughout. The TGI in the experiment with BT-549 breast, with SF-539 CNS, with SF-295 CNS, in the experiment with SF-268 CNS, with OVCAR-4 ovarian and in the experiment on SW-620 colon was above 100 µM each time.
For the compound `Cc1cc(C)c2c(n1)S(=O)(=O)N(CCCN1CCN(c3cccc(C(F)(F)F)c3)CC1)/C(=C(\O)c1ccccc1)C2=O`, the TGI in the experiment on MOLT-4 leukemia is 10.8 µM; in the experiment with OVCAR-3 ovarian, 18.1 µM; with COLO 205 colon, 14.7 µM; in the experiment with NCI-H226 lung it was 7.92 µM; in the experiment on SN12C renal, above 100 µM; in the experiment on NCI-H522 lung it was 88.9 µM. For the same compound, the TGI in the experiment on BT-549 breast is 57.3 µM; in the experiment on SF-539 CNS, 98.7 µM; with SF-295 CNS, 19.7 µM; in the experiment with SF-268 CNS it was above 100 µM; with OVCAR-4 ovarian, 63.9 µM; in the experiment with SW-620 colon, 29.3 µM.
Consider `COC(=O)c1ccc2n1C1CC3CC(CC2C3)C1`, for which the TGI with MOLT-4 leukemia, with OVCAR-3 ovarian, in the experiment with COLO 205 colon, with NCI-H226 lung, in the experiment on SN12C renal and with NCI-H522 lung was above 100 µM throughout. Further, the TGI in the experiment with BT-549 breast, in the experiment on SF-539 CNS, in the experiment on SF-295 CNS, in the experiment with SF-268 CNS, in the experiment with OVCAR-4 ovarian and in the experiment on SW-620 colon was above 100 µM in each case.
For the compound `Cc1ccc(C(=O)CC(Cl)=C(Cl)Cl)cc1`, the TGI in the experiment on MOLT-4 leukemia is 47 µM; with OVCAR-3 ovarian, above 100 µM; in the experiment on COLO 205 colon, above 100 µM; in the experiment on NCI-H226 lung, above 100 µM; in the experiment with NCI-H522 lung, above 100 µM; in the experiment on BT-549 breast, above 100 µM. The TGI in the experiment on SF-539 CNS, in the experiment with SF-295 CNS, with SF-268 CNS, in the experiment on OVCAR-4 ovarian and with SW-620 colon was above 100 µM throughout.
